Measured values published in ChEMBL document CHEMBL4364299, “Discovery of a Potent Kelch-Like ECH-Associated Protein 1-Nuclear Factor Erythroid 2-Related Factor 2 (Keap1-Nrf2) Protein-Protein Interaction Inhibitor with Natural Proline Structure as a Cytoprotective Agent against Acetaminophen-Induced Hepatotoxicity” (J Med Chem, 2019).

Assays:
[1] = biological target: Kelch-like ECH-associated protein 1 (Homo sapiens, UniProt Q14145); experiment: Displacement of FITC-LDEETGEFL-NH2 from human KEAP1 Kelch domain (322 to 609 residues) measured after 30 mins by fluorescence polarization assay
[2] = biological target: T1, Nuclear factor erythroid 2-related factor 2 (Homo sapiens) (UniProt Q16236); experiment: Activation of Nrf2 (unknown origin) stably transfected in human HepG2-ARE-C8 cells assessed as increase in ARE-driven luciferase activity at 20 uM by luciferase reporter gene assay relative to control; type: cell-based
T1 sequence (whole entry): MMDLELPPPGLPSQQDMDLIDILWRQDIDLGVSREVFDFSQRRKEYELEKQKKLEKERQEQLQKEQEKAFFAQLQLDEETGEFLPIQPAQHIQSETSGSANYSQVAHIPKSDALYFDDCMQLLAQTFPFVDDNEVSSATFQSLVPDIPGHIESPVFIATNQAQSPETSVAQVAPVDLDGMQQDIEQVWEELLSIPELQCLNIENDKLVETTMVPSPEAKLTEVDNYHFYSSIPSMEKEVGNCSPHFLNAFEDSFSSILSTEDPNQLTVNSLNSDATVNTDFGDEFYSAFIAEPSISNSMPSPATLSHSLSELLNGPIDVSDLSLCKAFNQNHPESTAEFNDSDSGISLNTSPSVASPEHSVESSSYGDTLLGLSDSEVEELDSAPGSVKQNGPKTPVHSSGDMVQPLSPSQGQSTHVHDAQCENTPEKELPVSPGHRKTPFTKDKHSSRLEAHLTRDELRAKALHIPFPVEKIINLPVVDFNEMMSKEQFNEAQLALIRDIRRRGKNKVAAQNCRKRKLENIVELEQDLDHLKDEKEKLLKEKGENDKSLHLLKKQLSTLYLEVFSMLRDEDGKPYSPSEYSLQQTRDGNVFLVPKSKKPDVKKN

[3] = biological target: T1, Nuclear factor erythroid 2-related factor 2 (Homo sapiens); experiment: Activation of Nrf2 (unknown origin) stably transfected in human HepG2-ARE-C8 cells assessed as increase in ARE-driven luciferase activity at 0.1 uM by luciferase reporter gene assay relative to control; type: cell-based
[4] = biological target: T1, Nuclear factor erythroid 2-related factor 2 (Homo sapiens); experiment: Activation of Nrf2 (unknown origin) stably transfected in human HepG2-ARE-C8 cells assessed as increase in ARE-driven luciferase activity at 5 uM by luciferase reporter gene assay relative to control; type: cell-based
[5] = biological target: T1, Nuclear factor erythroid 2-related factor 2 (Homo sapiens); experiment: Activation of Nrf2 (unknown origin) stably transfected in human HepG2-ARE-C8 cells assessed as increase in ARE-driven luciferase activity at 1 uM by luciferase reporter gene assay relative to control; type: cell-based
[6] = biological target: T1, Nuclear factor erythroid 2-related factor 2 (Homo sapiens); experiment: Activation of Nrf2 (unknown origin) stably transfected in human HepG2-ARE-C8 cells assessed as increase in ARE-driven luciferase activity at 0.01 uM by luciferase reporter gene assay relative to control; type: cell-based
[7] = biological target: T1, Nuclear factor erythroid 2-related factor 2 (Homo sapiens); experiment: Activation of Nrf2 (unknown origin) stably transfected in human HepG2-ARE-C8 cells assessed as increase in ARE-driven luciferase activity at 10 uM by luciferase reporter gene assay relative to control; type: cell-based

Sequence of Kelch-like ECH-associated protein 1 (Q14145 whole entry, the tested form may be a part): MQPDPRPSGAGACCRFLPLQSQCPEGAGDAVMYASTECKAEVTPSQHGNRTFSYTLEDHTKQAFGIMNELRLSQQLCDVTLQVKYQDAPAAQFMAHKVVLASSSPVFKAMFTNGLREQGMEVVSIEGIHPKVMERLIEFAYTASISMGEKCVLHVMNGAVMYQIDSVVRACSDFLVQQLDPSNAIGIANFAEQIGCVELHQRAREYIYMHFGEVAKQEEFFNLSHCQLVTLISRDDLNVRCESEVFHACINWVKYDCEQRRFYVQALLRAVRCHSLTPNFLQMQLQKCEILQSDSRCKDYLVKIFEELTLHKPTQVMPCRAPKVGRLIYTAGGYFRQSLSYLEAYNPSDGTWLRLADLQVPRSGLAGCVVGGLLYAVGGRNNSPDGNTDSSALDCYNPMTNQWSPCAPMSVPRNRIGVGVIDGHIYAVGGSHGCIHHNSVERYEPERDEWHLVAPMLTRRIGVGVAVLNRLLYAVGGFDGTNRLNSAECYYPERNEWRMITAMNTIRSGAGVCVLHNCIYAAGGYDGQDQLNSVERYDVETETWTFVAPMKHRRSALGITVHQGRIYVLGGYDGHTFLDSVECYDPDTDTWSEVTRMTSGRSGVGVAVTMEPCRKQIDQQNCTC

SMILES	IC50 [1] [µM]	other results
COc1ccc(S(=O)(=O)Nc2ccc(N[C@@H](CCS(C)(=O)=O)C(=O)O)c3ccccc23)cc1	> 50	
CC(C)(C)c1cc(O)ccc1O		fold change (FC) [2]: 4.87; fold change (FC) [3]: 1.02; fold change (FC) [4]: 2.27; fold change (FC) [5]: 1.46; fold change (FC) [6]: 1.04; fold change (FC) [7]: 3.38
COc1ccc(S(=O)(=O)Nc2ccc(N[C@@H](CO)C(=O)O)c3ccccc23)cc1	> 50	
COc1ccc(S(=O)(=O)Nc2ccc(N[C@@H](Cc3ccc(O)cc3)C(=O)O)c3ccccc23)cc1	> 50	
COc1ccc(S(=O)(=O)Nc2ccc(N[C@H](C(=O)O)C(C)(C)C)c3ccccc23)cc1	> 50	

The next lines start with results.

IC50 [1] [µM]	SMILES	other results
> 50	COc1ccc(S(=O)(=O)Nc2ccc(N[C@@H](Cc3c[nH]c4ccccc34)C(=O)O)c3ccccc23)cc1	
> 50	COc1ccc(S(=O)(=O)N(CC(=O)O)c2ccc(N[C@@H](CO)C(=O)O)c3ccccc23)cc1	
> 50	COc1ccc(S(=O)(=O)Nc2ccc(N[C@@H](CC(C)C)C(=O)O)c3ccccc23)cc1	
> 50	COc1ccc(S(=O)(=O)Nc2ccc(N[C@H](C(=O)O)C(C)C)c3ccccc23)cc1	
> 50	COc1ccc(S(=O)(=O)Nc2ccc(N[C@@H](C)C(=O)O)c3ccccc23)cc1	
